Here are results for eight compounds from patent US7196115B2, “Pharmaceutical composition containing brevifoliol for use in chemotherapeutic treatment of human beings, method therefor” (Council of Scientific and Industrial Research, priority 2002, dated 2007).

In brackets after ≈: the same amount, converted by molar mass. Read-outs that look alike come from different tables or passages of the source. Some results are limits rather than exact numbers.

Data set [1] has as its system Caco-2 colon cancer cells. Nature of the data set: Soft agar assay for colony formation (clonogenic assay). The following applies: compound in top soft agar; for Cytotoxic properties (IC 90) Caco-2: colony formation on soft agar; for IC90: Homo sapiens, Caco-2, colony formation on soft agar, read-out: Cytotoxic properties (IC 90) Caco-2. Format: cell-based, human. An excerpt:
(§1) The bioactivity testing was done at two stages.

Data set [2] concerns PA-1 ovary cancer cells. The data set is described as above. The following applies: colony formation on soft agar, compound in top soft agar; for IC90: Homo sapiens, read-out: Cytotoxic properties (IC 90) PA-1. Type of data set: cell-based, human.
Description: as §1

Data set [3] relates to MCF-7 breast cancer cells. The description is as above. The conditions noted are these: compound in top soft agar; for Cytotoxic properties (IC 90) MCF-7: colony formation on soft agar; for IC90: Homo sapiens, MCF7, colony formation on soft agar, read-out: Cytotoxic properties (IC 90) MCF-7. Format: cell-based, human.
Description: as §1

Data set [4] concerns KB-403 mouth cancer cells. The protocol:
(§2) As a part of the studies on the isolation of anticancer compounds a number of taxanes were isolated from the needles of the plant Taxus wallichiana and tested for their anti-cancer properties against six human cancer cell lines in-vitro. The bioactivity testing was done at two stages. In the initial step, MTT assay was performed from which the inhibitory concentration (IC90) the concentration (μg/mL) of the taxanes required for 90% inhibition of cell growth was deduced. […] The MTT assay cannot discriminate between growth inhibition and cell death; it is an overall measurement of cell proliferation (Woerdenbag et al., 1993; J.Nat.Prod. 56 (6): 849–856). Therefore the IC90 data obtained by the MTT assay may overestimate the cell killing activity of a compound. […] Persons skilled in the art of anti-cancer drug discovery can perform both these assays.
(§3) The clonogenic assay for tumor cells which determines the actual cell death was performed to determine the cytotoxic potential of test compounds. The principle of clonogenic assay is to investigate the ability of an individual cell to form a colony on a soft agar plate containing various concentrations of test compounds.
(§4) Cells not able to form colonies are considered clonogenically dead (Beekman et al 1997; J.Nat.Prod. 60(4): 325–330). The concentration of test compound resulting in […] was denoted as IC90 and was used as a parameter for cytotoxicity. The assay was performed as described previously except that the test compounds were added into the top soft agar and the cells were plated out to form colonies. Anthracycline derivative doxorubicin and microtubule depolymerization inhibitor paclitaxel (Sigma Chem. Co., St. Loius, USA) both established anticancer agents were included as standard reference drugs.

In data set [5] the test system is Caco-2 colon cancer cells. Put plainly: In-vitro anticancer MTT assay. The following applies: for IC90: Homo sapiens. Type of data set: cell-based, human.
Description: as §1

In data set [6] the test system is PA-1 ovary cancer cells. Put plainly: In-vitro anticancer MTT assay. The following applies: for Cytotoxic properties (IC 90) PA-1 / IC90: MTT assay, 6 h exposure, then 48 h in fresh media, 90% inhibition of cell growth; for IC90: Homo sapiens, read-out: Cytotoxic properties (IC 90) PA-1. Type of data set: cell-based, human.
Description: as §1

The subject of data set [7] is MCF-7 breast cancer cells. Nature of the data set: In-vitro anticancer MTT assay. Format: cell-based, human. The following applies: for IC90: Homo sapiens, MCF7, read-out: Cytotoxic properties (IC 90) MCF-7.
Description: as §1

In data set [8] the test system is KB-403 mouth cancer cells. The procedure:
as §2
(§5) The following six human cancer lines were procured from the Cell Repository of the National Center for Cell Sciences (NCSS) at Pune. Their corresponding ATCC No. and the organ from which they were isolated are also mentioned in Table 1 below:
(§6) Cytotoxicity testing in vitro was done by the method of Woerdenbag et al.,1993; J.Nat.Prod. 56 (6): 849–856). 2×10^3 cells/well were incubated in the 5% CO2 incubator for 24 h to enable them to adhere properly to the 96 well polysterene microplate (Grenier, Germany). Test compounds dissolved in 100% DMSO (Merck,Germany) in at least five doses were added and left for 6 h after which the compound plus media was replaced with fresh media and the cells were incubated for another 48 h in the CO2 incubator at 37° C. […] Then, 10 μl MTT [3-(4,5-dimethylthiazol-2-yl)-2,5-diphenyltetrazolium bromide; Sigma M 2128] was added, and plates were incubated at 37° C. for 4 h. 100 μl dimethyl sulfoxide (DMSO, Merck, Germany) were added to all wells and mixed thoroughly to dissolve the dark blue crystals. After a few minutes at room temperature to ensure that all crystals were dissolved, the plates were read on a SpectraMax 190 Microplate Elisa reader (Molecular Devices Inc., USA), at 570 nm. Plates were normally read within 1 h of adding the DMSO. The experiment was done in triplicate and the inhibitory concentration (IC) values were calculated as follows: % inhibition=[1-OD (570 nm) of sample well/OD (570 nm) of control well]×100. IC90 is the concentration μg/mL required for 90% inhibition of cell growth as compared to that of untreated control.
The source holds these as a separate data set.

Data set [9] has as its system WRL-68 liver cancer cells. Nature of the data set: Soft agar assay for colony formation (clonogenic assay). The conditions noted are these: for IC90: Homo sapiens, WRL68, read-out: Cytotoxic properties (IC 90) WRL-68. The protocol: as §2, §3, §4
In data set [10] the test system is COLO-320DM colon cancer cells. Nature of the data set: In-vitro anticancer MTT assay. Format: cell-based, human. The following applies: 6 h exposure, then 48 h in fresh media, 90% inhibition of cell growth; for IC90: Homo sapiens, COLO 320DM, read-out: Cytotoxic properties (IC 90) COLO-320 DM.
Description: as §1

Data set [11] deals with WRL-68 liver cancer cells. Put plainly: In-vitro anticancer MTT assay. The following applies: for IC90: Homo sapiens, WRL68, read-out: Cytotoxic properties (IC 90) WRL-68. The protocol: as §2, §5, §6
Data set [12] relates to COLO-320DM colon cancer cells. Nature of the data set: Soft agar assay for colony formation (clonogenic assay). Type of data set: cell-based, human. The following applies: colony formation on soft agar, compound in top soft agar; for IC90: Homo sapiens, COLO 320DM, read-out: Cytotoxic properties (IC 90) COLO-320 DM.
Description: as §1

The mark [13] stands for this setting: clonogenic assay, colony formation on soft agar, compound in top soft agar.
The mark [14] stands for this setting: MTT assay, 6 h exposure, then 48 h in fresh media, 90% inhibition of cell growth.
Where [15] appears, read: Caco-2, MTT assay, 6 h exposure, then 48 h in fresh media, 90% inhibition of cell growth, read-out: Cytotoxic properties (IC 90) Caco-2.

On to 2′-Deacetoxy austrospicatin, for which the “Cytotoxic properties (IC 90) Caco-2” value was 3.16 µg/mL in data set [1] and 1.0 µg/mL in data set [5] (setting [14]). Also, the “Cytotoxic properties (IC 90) PA-1” value in data set [2] is 6.3 µg/mL; in [6], 4.0 µg/mL. The “Cytotoxic properties (IC 90) MCF-7” value in data set [3] is 5.63 µg/mL; in [7] (setting [14]), 3.5 µg/mL. Further, the “Cytotoxic properties (IC 90) KB-403” value is 0.44 µg/mL in data set [4] (setting [13]) and 4.5 µg/mL in [8] (setting [14]).
As to `C=C1[C@H]2C[C@@H]3C[C@H](OC(C)=O)C(C)=C([C@@H](OC(C)=O)[C@H](OC(C)=O)[C@]2(C)[C@@H](OC(C)=O)C[C@@H]1O)C3(C)C` [2-deacetoxy decinnamoyl taxinine J], the entries for the “Cytotoxic properties (IC 90) Caco-2” value in data set [1] and in [5] (setting [14]) were 31.82 µg/mL and 6.4 µg/mL, respectively. Further, the “Cytotoxic properties (IC 90) PA-1” value in data set [2] stood at 15.84 µg/mL; in [6], 10.0 µg/mL. Further, the “Cytotoxic properties (IC 90) WRL-68” value in data set [9] (setting [13]) is 12.58 µg/mL; in data set [11] (setting [14]), 0.5 µg/mL. For the same compound, the “Cytotoxic properties (IC 90) KB-403” value turned out to be 0.11 µg/mL in data set [4] (setting [13]) and 0.01 µg/mL in data set [8] (setting [14]). The “Cytotoxic properties (IC 90) COLO-320 DM” value in data set [10] is greater than 10.0 µg/mL.
Regarding `C=C1[C@@H](OC(=O)/C=C/c2ccccc2)C[C@H](OC(C)=O)[C@]2(C)[C@@H]1C[C@@H]1C[C@H](OC(C)=O)C(C)=C([C@@H](OC(C)=O)[C@@H]2OC(C)=O)C1(C)C` [2-deacetoxy taxinine J], the “Cytotoxic properties (IC 90) Caco-2” value was found to be 0.25 µg/mL in data set [1] and 0.009 µg/mL in data set [5] (setting [14]). In addition, the “Cytotoxic properties (IC 90) COLO-320 DM” value in data set [12] came out at 10.0 µg/mL; in [10] it was 1.0 µg/mL. Besides, the “Cytotoxic properties (IC 90) MCF-7” value in data set [3] amounted to 7.94 µg/mL; in data set [7] (setting [14]), 6.5 µg/mL. In addition, the “Cytotoxic properties (IC 90) KB-403” value in data set [4] (setting [13]) was 28.18 µg/mL; in data set [8] (setting [14]), 3.5 µg/mL.
Turning to `CC(=O)O[C@H]1C[C@H]2OC[C@@]2(OC(C)=O)[C@H]2[C@H](OC(C)=O)[C@]3(C(C)(C)O)C[C@H](O)C(C)=C3[C@@H](O)[C@H](OC(C)=O)[C@]12C` [10,13,deacetyl abeobaccatin IV], in data set [7], the “Cytotoxic properties (IC 90) MCF-7” value was greater than 10.0 µg/mL. Besides, the “Cytotoxic properties (IC 90) KB-403” value in data set [8] (setting [14]) was greater than 10.0 µg/mL.
For `C=C1C2C[C@]3(C(C)(C)O)CC(O)C(C)=C3[C@@H](OC(=O)c3ccccc3)[C@H](OC(C)=O)[C@]2(C)[C@@H](OC(C)=O)C[C@@H]1O` (some centres unmarked) [Brevifoliol, brevifoliol], the IC90 in data set [1] is 0.31 µg/mL (≈ 0.557 µM); in data set [2], 7.94 µg/mL (≈ 14.3 µM); in [12] it was 1 µg/mL (≈ 1.8 µM); in [3], 1.99 µg/mL (≈ 3.57 µM); in data set [9], 15.8 µg/mL (≈ 28.5 µM); in [5] (Caco-2, read-out: Cytotoxic properties (IC 90) Caco-2) it was 0.85 µg/mL (≈ 1.53 µM). Besides, the IC90 is 6 µg/mL (≈ 10.8 µM) in data set [6], 0.1 µg/mL (≈ 0.18 µM) in [10], 0.004 µg/mL (≈ 0.00719 µM) in data set [7] (setting [14]) and greater than 10 µg/mL in data set [11]. The “Cytotoxic properties (IC 90) KB-403” value is 0.398 µg/mL in data set [4] (setting [13]) and 0.035 µg/mL in data set [8] (setting [14]). For the same compound, the “activity against Caco-2 cancer cells, in words” value in data set [5] (summary of the bioassay data) is “highly inhibitory”. The “activity against PA-1 cancer cells, in words” value in data set [6] (summary of the bioassay data) is “highly inhibitory”. The “activity against MCF-7 cancer cells, in words” value in data set [7] (summary of the bioassay data) is on record as “highly inhibitory”. Further, in data set [8] (summary of the bioassay data), the “activity against KB-403 cancer cells, in words” value is “highly inhibitory”. In [11] (summary of Table 2), the “activity against WRL-68 liver cancer cells, in words” value is listed as “active against all cancer cell lines except liver cancer (WRL-68)”.
With `COc1cccc2c1C(=O)c1c(O)c3c(c(O)c1C2=O)C[C@@](O)(C(=O)CO)C[C@@H]3O[C@H]1C[C@H](N)[C@H](O)[C@H](C)O1` [Doxorubicin (Std), doxorubicin, reference compound], the IC90 in data set [1] was 0.079 µg/mL (≈ 0.145 µM); in data set [2], 10 µg/mL (≈ 18.4 µM); in [12] it was 0.1 µg/mL (≈ 0.184 µM); in data set [3], 0.8 µg/mL (≈ 1.47 µM); in [9], 3.98 µg/mL (≈ 7.32 µM); in [5] (setting [15]), 0.052 µg/mL (≈ 0.0957 µM). The IC90 was 0.5 µg/mL (≈ 0.92 µM) in data set [6], 0.08 µg/mL (≈ 0.147 µM) in data set [10], 0.01 µg/mL (≈ 0.0184 µM) in data set [7] (setting [14]) and 1 µg/mL (≈ 1.84 µM) in data set [11]. Further, the “Cytotoxic properties (IC 90) KB-403” value in data set [8] stood at 0.06 µg/mL.
For `CC(=O)O[C@H]1C(=O)[C@@]2(C)[C@H]([C@H](OC(=O)c3ccccc3)[C@]3(O)C[C@H](OC(=O)[C@H](O)[C@@H](NC(=O)c4ccccc4)c4ccccc4)C(C)=C1C3(C)C)[C@]1(OC(C)=O)CO[C@@H]1C[C@@H]2O` [Taxol (Std), taxol, reference compound], the IC90 in data set [1] is 1.99 µg/mL (≈ 2.33 µM); in data set [2], 1.47 µg/mL (≈ 1.72 µM); in data set [12] it was 0.8 µg/mL (≈ 0.937 µM); in data set [3], 1.99 µg/mL (≈ 2.33 µM); in [9], 6.3 µg/mL (≈ 7.38 µM); in [5] (setting [15]), 0.065 µg/mL (≈ 0.0761 µM). Also, the IC90 in [6] turned out to be 0.9 µg/mL (≈ 1.05 µM); in [10] it was 0.01 µg/mL (≈ 0.0117 µM); in [7] (setting [14]), 0.85 µg/mL (≈ 0.995 µM); in [11] it was 2.5 µg/mL (≈ 2.93 µM). For the same compound, the “Cytotoxic properties (IC 90) KB-403” value is 7.94 µg/mL in data set [4] and 0.047 µg/mL in data set [8].
On to Acetoxy brevifoliol, for which the “Cytotoxic properties (IC 90) WRL-68” value in data set [9] was 7.0 µg/mL; in data set [11] it was 5.0 µg/mL. The “Cytotoxic properties (IC 90) KB-403” value in [4] came out at 1.0 µg/mL; in data set [8], 10.0 µg/mL.
